Earlier results as cited in US20240374543A1, “PHARMACEUTICAL COMPOSITIONS” (priority 2021, published 2024).

Details: determined by the FDA

N-Nitrosodimethylamine [NDMA]
acceptable daily intake limit of NDMA: 96 nanogram per day
